Data as given in patent publication US9290511B2, “Thieno-pyrimidines, useful as potassium channel inhibitors” (XENTION LIMITED, priority 2011, dated 2016).

molecular target: T1, Kir3.1/3.4 (Rattus norvegicus, UniProt P48548+P63251); assay: Kir3.1/3.4 Q-patch Method (automated patch clamp, Sophion Q-patch); format: cell-based; details: HEK293 cells stably-expressing Kir3.1/3.4; current at -120 mV; QPatch-16 or QPatch-48
T1 construct: expressed in transfected cells
T1 sequence (P63251 1-501): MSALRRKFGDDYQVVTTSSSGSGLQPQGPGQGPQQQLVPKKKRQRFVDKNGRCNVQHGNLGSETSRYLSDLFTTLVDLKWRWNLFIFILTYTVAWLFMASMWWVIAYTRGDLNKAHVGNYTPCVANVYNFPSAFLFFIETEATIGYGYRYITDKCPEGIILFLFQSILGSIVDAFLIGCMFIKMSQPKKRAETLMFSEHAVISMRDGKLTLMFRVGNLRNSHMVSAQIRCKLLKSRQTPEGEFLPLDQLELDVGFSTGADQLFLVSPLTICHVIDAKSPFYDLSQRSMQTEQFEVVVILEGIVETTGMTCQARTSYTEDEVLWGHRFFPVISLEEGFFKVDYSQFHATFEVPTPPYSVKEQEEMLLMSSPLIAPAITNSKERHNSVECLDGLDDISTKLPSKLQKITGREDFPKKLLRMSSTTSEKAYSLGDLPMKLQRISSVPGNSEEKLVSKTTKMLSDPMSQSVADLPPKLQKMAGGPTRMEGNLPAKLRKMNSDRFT
T1 sequence (P48548 1-419): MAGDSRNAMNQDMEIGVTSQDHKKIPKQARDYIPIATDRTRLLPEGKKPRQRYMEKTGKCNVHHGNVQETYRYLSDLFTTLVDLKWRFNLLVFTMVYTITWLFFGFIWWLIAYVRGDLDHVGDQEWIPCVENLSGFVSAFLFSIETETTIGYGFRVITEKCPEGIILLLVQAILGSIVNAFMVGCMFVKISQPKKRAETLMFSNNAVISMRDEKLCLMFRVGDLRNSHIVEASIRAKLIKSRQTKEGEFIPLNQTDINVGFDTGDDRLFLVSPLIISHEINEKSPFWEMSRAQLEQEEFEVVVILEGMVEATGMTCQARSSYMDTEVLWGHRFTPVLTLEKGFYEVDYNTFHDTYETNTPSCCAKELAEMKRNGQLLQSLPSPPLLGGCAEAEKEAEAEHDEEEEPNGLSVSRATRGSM
Protocol: For automated patch-clamp studies using the Sophion Q-patch, accumulative concentration-responses experiments were conducted to determine compound activity against the ion channel target. Voltage-clamp experiments were performed using HEK293 cells stably-expressing Kir3.1/3.4 using either a QPatch-16 or QPatch-48 (Sophion Bioscience A/S). A voltage waveform (VHold−20 mV, step to 60 mV for 100 ms, ramp to −120 mV over 500 ms, hold at −120 mV for 100 ms before returning to VHold) was repeatedly applied to the cells under voltage-clamp at a frequency of 0.1 Hz to elicit Kir3.1/3.4 currents. Mean current at −120 mV was measured in the absence (Icontrol) and presence of drug (IDrug). Assessment of passive leak was performed by removal of external potassium (IZero). Leak current was subtracted from control and drug recordings. Current inhibition (%) was calculated as {1−[(IDrug−IZero)/(IControl−IZero)]}*100. Data were fitted with a sigmoidal function to yield an IC50 and Hill coefficient. Composition of external experimental buffer was (in mM): 40 NaCl, 100 KCl, 5 CaCl2, 1 MgCl2, 10 HEPES pH 7.4. Composition of internal solution was (in mM). 40 K-gluconate, 60 KF, 20 NaCl, 5 Mg-ATP, 0.9 GTPgS, 20 EGTA, pH 7.2. Compounds were formulated in DMSO and diluted in buffer to give a final drug concentration of between […] and a final DMSO concentration of 0.1-0.3%.

Compound | IC50
COCC1CC2CCC(C1)N2c1nc(C#N)nc2scc(-c3ccccc3OC)c12 (stereo not shown) [Example 406, 4-[3-(methoxymethyl)-8-azabicyclo[3.2.1]octan-8-yl]-5-(2-methoxyphenyl)thieno[2,3-d]pyrimidine-2-carbonitrile] | < 500 nM
COc1ccccc1-c1csc2nc(N3CCNC(=O)C3)nc(N3C4CCC3COC4)c12 [Example 403, 4-[5-(2-methoxyphenyl)-4-(3-oxa-8-azabicyclo[3.2.1]octan-8-yl)thieno[2,3-d]pyrimidin-2-yl]piperazin-2-one] | < 500 nM
NC(=O)C1CCN(c2nc(N3C4CCC3COC4)nc3scc(-c4ccccc4Cl)c23)C1 (stereo not shown) [Example 415, 1-[5-(2-chlorophenyl)-2-(3-oxa-8-azabicyclo[3.2.1]octan-8-yl)thieno[2,3-d]pyrimidin-4-yl]pyrrolidine-3-carboxamide] | 500 to 3000 nM
COc1ccccc1-c1csc2nc(N3CCC(C(N)=O)C3)nc(N3C4CCC3COC4)c12 (stereo not shown) [Example 401, 1-[5-(2-methoxyphenyl)-4-(3-oxa-8-azabicyclo[3.2.1]octan-8-yl)thieno[2,3-d]pyrimidin-2-yl]pyrrolidine-3-carboxamide] | 500 to 3000 nM
COCC1CC2CCC(C1)N2c1nc(N2C3CCC2COC3)c2c(-c3ccccc3OC)csc2n1 (stereo not shown) [Example 395, 8-[2-[3-(methoxymethyl)-8-azabicyclo[3.2.1]octan-8-yl]-5-(2-methoxyphenyl)thieno[2,3-d]pyrimidin-4-yl]-3-oxa-8-azabicyclo[3.2.1]octane] | 500 to 3000 nM
COc1ccccc1-c1csc2nc(C#N)nc(N3C4CCC3CC(OC)C4)c12 (stereo not shown) [Example 405, 4-(3-methoxy-8-azabicyclo[3.2.1]octan-8-yl)-5-(2-methoxyphenyl)thieno[2,3-d]pyrimidine-2-carbonitrile] | 500 to 3000 nM
COc1ccccc1-c1csc2nc(N3CCNC(C(N)=O)C3)nc(N3C4CCC3CC(OC)C4)c12 (stereo not shown) [Example 394, 4-[4-(3-methoxy-8-azabicyclo[3.2.1]octan-8-yl)-5-(2-methoxyphenyl)thieno[2,3-d]pyrimidin-2-yl]piperazine-2-carboxamide] | < 500 nM
COc1ccccc1-c1csc2nc(N3C4CCC3COC4)nc(N3CCOC(C(N)=O)C3)c12 (stereo not shown) [Example 419, 4-[5-(2-methoxyphenyl)-2-(3-oxa-8-azabicyclo[3.2.1]octan-8-yl)thieno[2,3-d]pyrimidin-4-yl]morpholine-2-carboxamide] | < 500 nM
COc1ccccc1-c1csc2nc(N3CCOC(C(N)=O)C3)nc(N3C4CCC3COC4)c12 (stereo not shown) [Example 418, 4-[5-(2-methoxyphenyl)-4-(3-oxa-8-azabicyclo[3.2.1]octan-8-yl)thieno[2,3-d]pyrimidin-2-yl]morpholine-2-carboxamide] | 500 to 3000 nM
COc1ccccc1-c1csc2nc(N3C4CCC3CC(O)C4)nc(N3C4CCC3CC(OC)C4)c12 (stereo not shown) [Example 377, 8-[4-(3-methoxy-8-azabicyclo[3.2.1]octan-8-yl)-5-(2-methoxyphenyl)thieno[2,3-d]pyrimidin-2-yl]-8-azabicyclo[3.2.1]octan-3-ol] | 500 to 3000 nM
NC(=O)C1CCCN(c2nc(N3C4CCC3COC4)nc3scc(-c4ccccc4Cl)c23)C1 (stereo not shown) [Example 411, 1-[5-(2-chlorophenyl)-2-(3-oxa-8-azabicyclo[3.2.1]octan-8-yl)thieno[2,3-d]pyrimidin-4-yl]piperidine-3-carboxamide] | 500 to 3000 nM
COc1ccccc1-c1csc2nc(N3C4CCC3COC4)nc(N3C4CCC3COC4)c12 [Example 402, 8-[5-(2-methoxyphenyl)-2-(3-oxa-8-azabicyclo[3.2.1]octan-8-yl)thieno[2,3-d]pyrimidin-4-yl]-3-oxa-8-azabicyclo[3.2.1]octane] | 500 to 3000 nM
COCC1CC2CCC(C1)N2c1nc(N2C3CCC2CC(O)C3)nc2scc(-c3ccccc3OC)c12 (stereo not shown) [Example 372, 8-[4-[3-(methoxymethyl)-8-azabicyclo[3.2.1]octan-8-yl]-5-(2-methoxyphenyl)thieno[2,3-d]pyrimidin-2-yl]-8-azabicyclo[3.2.1]octan-3-ol] | < 500 nM
COc1ccccc1-c1csc2nc(N3CCC(C(N)=O)C3)nc(N3C4CCC3CC(OC)C4)c12 (stereo not shown) [Example 396, 1-[4-(3-methoxy-8-azabicyclo[3.2.1]octan-8-yl)-5-(2-methoxyphenyl)thieno[2,3-d]pyrimidin-2-yl]pyrrolidine-3-carboxamide] | < 500 nM
O=C1CN(c2nc(N3C4CCC3COC4)c3c(-c4ccccc4Cl)csc3n2)CCN1 [Example 424, 4-[5-(2-chlorophenyl)-4-(3-oxa-8-azabicyclo[3.2.1]octan-8-yl)thieno[2,3-d]pyrimidin-2-yl]piperazin-2-one] | < 500 nM
COc1ccccc1-c1csc2nc(N3CCNC(=O)C3)nc(N3C4CCC3CC(OC)C4)c12 (stereo not shown) [Example 380, 4-[4-(3-methoxy-8-azabicyclo[3.2.1]octan-8-yl)-5-(2-methoxyphenyl)thieno[2,3-d]pyrimidin-2-yl]piperazin-2-one] | < 500 nM
NC(=O)C1CN(c2nc(N3C4CCC3COC4)c3c(-c4ccccc4Cl)csc3n2)CCO1 (stereo not shown) [Example 420, 4-[5-(2-chlorophenyl)-4-(3-oxa-8-azabicyclo[3.2.1]octan-8-yl)thieno[2,3-d]pyrimidin-2-yl]morpholine-2-carboxamide] | < 500 nM
COc1ccccc1-c1csc2nc(N3C4CCC3CC(CO)C4)nc(N3CCNC(=O)C3)c12 (stereo not shown) [Example 413, 4-[2-[3-(hydroxymethyl)-8-azabicyclo[3.2.1]octan-8-yl]-5-(2-methoxyphenyl)thieno[2,3-d]pyrimidin-4-yl]piperazin-2-one] | < 500 nM
COC1CC2CCC(C1)N2c1nc(N2C3CCC2CC(O)C3)nc2scc(-c3ccccc3Cl)c12 (stereo not shown) [Example 375, 8-[5-(2-chlorophenyl)-4-(3-methoxy-8-azabicyclo[3.2.1]octan-8-yl)thieno[2,3-d]pyrimidin-2-yl]-8-azabicyclo[3.2.1]octan-3-ol] | 500 to 3000 nM
Clc1ccccc1-c1csc2nc(N3C4CCC3COC4)nc(N3C4CCC3COC4)c12 [Example 423, 8-[5-(2-chlorophenyl)-2-(3-oxa-8-azabicyclo[3.2.1]octan-8-yl)thieno[2,3-d]pyrimidin-4-yl]-3-oxa-8-azabicyclo[3.2.1]octane] | 500 to 3000 nM
COc1ccccc1-c1csc2nc(N3C4CCC3COC4)nc(N3C4CCC3CC(OC)C4)c12 (stereo not shown) [Example 379, 8-[4-(3-methoxy-8-azabicyclo[3.2.1]octan-8-yl)-5-(2-methoxyphenyl)thieno[2,3-d]pyrimidin-2-yl]-3-oxa-8-azabicyclo[3.2.1]octane] | 500 to 3000 nM
COc1ccccc1-c1csc2nc(N3C4CCC3CC(OC)C4)nc(N3C4CCC3CC(OC)C4)c12 (stereo not shown) [Example 407, 2,4-bis(3-methoxy-8-azabicyclo[3.2.1]octan-8-yl)-5-(2-methoxyphenyl)thieno[2,3-d]pyrimidine] | 500 to 3000 nM
COc1ccccc1-c1csc2nc(N3CCC(O)C3)nc(N3C4CCC3COC4)c12 (stereo not shown) [Example 404, 1-[5-(2-methoxyphenyl)-4-(3-oxa-8-azabicyclo[3.2.1]octan-8-yl)thieno[2,3-d]pyrimidin-2-yl]pyrrolidin-3-ol] | < 500 nM
COC1CC2CCC(C1)N2c1nc(N2CCOC(C(N)=O)C2)nc2scc(-c3ccccc3Cl)c12 (stereo not shown) [Example 408, 4-[5-(2-chlorophenyl)-4-(3-methoxy-8-azabicyclo[3.2.1]octan-8-yl)thieno[2,3-d]pyrimidin-2-yl]morpholine-2-carboxamide] | < 500 nM
COc1ccccc1-c1csc2nc(N3C4CCC3CC(OC)C4)nc(N3C4CCC3COC4)c12 (stereo not shown) [Example 397, 8-[2-(3-methoxy-8-azabicyclo[3.2.1]octan-8-yl)-5-(2-methoxyphenyl)thieno[2,3-d]pyrimidin-4-yl]-3-oxa-8-azabicyclo[3.2.1]octane] | < 500 nM
